The nature of series [1]: Acute toxicity, oral LD50 in the mouse. To be noted: in vivo, read-out: DL50 (mg/kg) p.o. Here is the method:
Leur toxicité aigüe est faible : la dose léthale à 50 % (LD50) déterminée chez la souris est supérieure à 1000 mg/kg par la voie orale pour la plupart d'entre eux.
(§1) Le tableau suivant donne les toxicités et les diminutions maximales d'ulcères obtenues aux doses indiquées, pour quelques composés de l'invention.

Series [2] has as its system ulcère d'estomac induit par la phénylbutazone. Briefly: Phenylbutazone-induced stomach ulcer in the rat. It is filed as in vivo. The settings on record: po, maximal decrease of ulcers, 30 min before phenylbutazone 200 mg/kg p.o., female Wistar rats, scored 2 h later, read-out: Diminution ulcération (%); for inhibition in vivo at 30 mg/kg: dose 30 mg/kg p.o.; for inhibition in vivo at 100 mg/kg: dose 100 mg/kg p.o. Here is the method:
Les composés de l'invention ont été testés quant à leur effet sur l'ulcère d'estomac induit par la phénylbutazone chez le rat.
Le test est effectué sur des rats Wistar femelles pesant 180-210 g à jeun depuis 20 heures, répartis en blocs randomisés.
Les ulcères sont provoqués par l'administration orale de phénylbutazone en solution mole à mole avec de la soude, à la dose de 200 mg/kg.
Les composés à étudier sont administrés par voie orale à raison de 10, 30 ou 100 mg/kg, 30 minutes avant l'ingestion de phénylbutazone, les animaux témoins ne recevant que le placébo.
Deux heures après l'administration de l'agent ulcérigène, les animaux sont sacrifiés par inhalation de chloroforme. Les estomacs sont prélevés et le degré d'ulcération est noté en aveugle de 0 à 3.
as §1

Structures are written as SMILES. Where only a bound is given, the exact number is not on record here.

As to `O=C(CN1CCC(O)CC1)NCCN=C(c1cc(Cl)ccc1O)c1ccccc1Cl` [Composé n° 1, N-[[[(chloro-5 hydroxy-2 phényl)(chloro-2 phényl)méthylène]amino]-2 éthyl] (hydroxy-4 pipéridinyl-1)-2 acétamide], in series [1], the LD50 was above 1000 mg/kg. For the same compound, the inhibition in vivo at 30 mg/kg in series [2] amounted to 100%.

With `O=C(CN1CCC(O)CC1)NCCN=C(c1ccccc1)c1cc(Cl)ccc1O` [Composé n° 2], in series [1], the LD50 was above 1000 mg/kg. The inhibition in vivo at 100 mg/kg in series [2] turned out to be 100%.

For the compound `Cc1ccc(O)c(C(=NCCNC(=O)CN2CCC(O)CC2)c2ccccc2Cl)c1` [Composé n° 7, N-[[[(méthyl-5 hydroxy-2 phényl)(chloro-2 phényl)méthylène]amino]-2 éthyl] (hydroxy-4 pipéridinyl-1)-2 acétamide], the LD50 in series [1] is above 1000 mg/kg. Further, in series [2], the inhibition in vivo at 30 mg/kg is 95%.

As for `Cc1cc(Cl)cc(C(=NCCNC(=O)CN2CCC(O)CC2)c2ccc(Cl)cc2)c1O` [compound 3], the LD50 in series [1] was above 1000 mg/kg. Besides, the inhibition in vivo at 30 mg/kg in series [2] was determined as 94%.

As to `Cc1ccc(C(=NCCNC(=O)CN2CCC(O)CC2)c2cc(Cl)ccc2O)cc1` [compound 4], in series [1], the LD50 is above 1000 mg/kg. Moreover, in series [2], the inhibition in vivo at 100 mg/kg is 96%.

As for `O=C(CN1CCC(O)CC1)NCCN=C(c1ccc(Cl)c(Cl)c1)c1cc(Cl)ccc1O` [compound 5], in series [1], the LD50 is above 1000 mg/kg. Further, the inhibition in vivo at 30 mg/kg in series [2] worked out at 92%.

`O=C(CN1CCC(O)CC1)NCCN=C(c1ccccc1Cl)c1cc(Cl)cc(Cl)c1O` [compound 6]: the LD50 in series [1] was above 1000 mg/kg. Besides, the inhibition in vivo at 30 mg/kg in series [2] came out at 100%.

Regarding `O=C(CN1CCC(O)CC1)NCCN=C(c1cc(Cl)ccc1O)c1ccc(Cl)cc1Cl` [compound 8], the LD50 in series [1] was above 1000 mg/kg. For the same compound, the inhibition in vivo at 100 mg/kg in series [2] was determined as 98%.

For the compound `Cc1ccccc1N1CCN(CC(=O)NCCN=C(c2cc(Cl)ccc2O)c2ccccc2Cl)CC1` [compound 19], the LD50 in series [1] was above 1000 mg/kg. The inhibition in vivo at 100 mg/kg in series [2] amounted to 71%.

Take `O=C(CN1CCNCC1)NCCN=C(c1cc(Cl)ccc1O)c1ccccc1Cl` [compound 23]: the inhibition in vivo at 10 mg/kg in series [2] (dose 10 mg/kg p.o.) came to 87%.

In the case of `O=C(CN1CCC(O)CC1)NCCNC(c1cc(Cl)ccc1O)c1ccccc1Cl` (stereo not shown) [compound 26], the LD50 in series [1] is above 1000 mg/kg. The inhibition in vivo at 30 mg/kg in series [2] came to 97%.

On to `Cc1ccccc1N1CCN(CC(=O)NCCNC(c2cc(Cl)ccc2O)c2ccccc2Cl)CC1` (stereo not shown) [compound 27], for which the LD50 in series [1] was above 1000 mg/kg. For the same compound, the inhibition in vivo at 30 mg/kg in series [2] was determined as 98%.

For `O=C(CN1CCN(c2ccc(Cl)cc2)CC1)NCCNC(c1cc(Cl)ccc1O)c1ccccc1Cl` (stereo not shown) [compound 29], the LD50 in series [1] was above 1000 mg/kg. Also, in series [2], the inhibition in vivo at 30 mg/kg is 98%.

The values above are taken from patent EP0239461A1, “N-¬¬(hydroxy-2-phenyl)(phenyl)methylene amino-2 ethyl acetamide derivatives, process for their preparation and their therapeutical use” (SYNTHELABO, priority 1986, dated 1987).
